Data from PubChem BioAssay AID1259407 (Chemical Carcinogenesis Research Information System (CCRIS), 2018).
Activity calls are given as the source filed them. No rule for the calls is given here.

Test system: CCRIS mutagenicity, Ames/micronucleus/aberration tests
Assay: CCRIS mutagenicity studies
Details: Test System: AMES SALMONELLA TYPHIMURIUM, Method: PREINCUBATION

Measured: mutagenic call

c1ccc2[nH]ccc2c1
inactive: Strain/Indicator: TA97, Metabolic Activation: NONE inactive; negative | Strain/Indicator: TA97, Metabolic Activation: RAT, LIVER, S-9, AROCLOR 1254 inactive; negative | Strain/Indicator: TA100, Metabolic Activation: NONE inactive; negative | Strain/Indicator: TA102, Metabolic Activation: NONE inactive; negative | Strain/Indicator: TA102, Metabolic Activation: RAT, LIVER, S-9, AROCLOR 1254 inactive; negative
